Results as given in US20250051350A1, “Dihydroartemisinin derivatives and the treatment of fibrotic diseases” (GreenStone Biosciences, Inc., priority 2023, published 2025).
Where two headings read alike, the source gives them in different places.

Assays:
[1] = test system: Induced pluripotent stem cell-derived cardiac fibroblasts (ACTA2-GFP); experiment: Antifibrotic effects in TGF-β-activated iPSC-derived cardiac fibroblasts (ACTA2-GFP fluorescence); type: cell-based; conditions: for reduction in fluorescence (fibrotic marker ACTA2-GFP) / IC50: activated with TGF-β, 48 hours; for reduction in fluorescence (fibrotic marker ACTA2-GFP): various concentrations; for IC50: simultaneous treatment, ACTA2-GFP fluorescence, read-out: IC50, reduction in fluorescence
From the text: Induced pluripotent stem cell-derived cardiac fibroblasts were constructed containing a fusion of the alpha-smooth muscle actin to the green fluorescent protein (ACTA2-GFP) construct. ACTA2 is a myofibroblast marker, such that the fibroblasts fluoresce with an intensity dependent on the extent of fibrosis.

in vitro = in vitro ADME; conditions: for fraction unbound: plasma
Method: Plasma protein binding assays were conducted in triplicate for compounds PT-2, PT-14, PT-28, and PT-30, with artesunate, DHA, and warfarin as comparators.

[2] = Intravenous and oral pharmacokinetics in mice; type: in vivo; conditions: male C57BL/6J mice; for IV AUC0-last / IV Clearance / IV T1/2 / IV VD,ss / PO AUC0-last / PO T1/2: plasma
Method: The intravenous (IV) and oral (PO) pharmacokinetics of the PT compounds were measured in 6-10 week-old male C57BL/6J mice, using three mice/group. The test compounds were formulated in an appropriate water-based vehicle to give a clear solution for IV administration, or a clear solution or uniform suspension for PO administration. Animals were dosed within 4 hours of the preparation of the formulations; with the dose volume being determined by the animal's body weight measured on the morning of the dosing day. Blood samples (about 25 μL per time point) were taken at 5 and 15 minutes and 1, 3, and 5 hours after dosing, into pre-chilled EDTA-K2 tubes and kept on wet ice until centrifugation. The tubes were centrifuged at 3200×g at about 4° C. for 10 minutes, and the plasma analyzed by LC-MS/MS.

[3] = test system: MD2 signaling pathway (HEK Blue-TLR4 cells); experiment: HEK Blue-TLR4 assay (MD2 pathway); type: cell-based; conditions: 1 h preincubation, 10 ng/mL lipopolysaccharide, read after 20 hours at 655 nm
Method: HEK Blue-TLR4 cells were plated in detection media, preincubated with vehicle or PT-2, PT-14, or PT-30 dissolved in vehicle (with artesunate, DHA, and artemisinin comparators) for 1 h, then co-stimulated with 10 ng/mL lipopolysaccharide. Reporter activity was read after 20 hours at 655 nm in a spectrophotometer. The PT compounds were active in this assay, showing that they inhibit the MD2 signaling pathway.

[4] = test system: bleomycin-induced pulmonary fibrosis model; conditions: bleomycin-induced pulmonary fibrosis model in rats; cited from earlier work

| SMILES | reduction in fluorescence (fibrotic marker ACTA2-GFP) [1] | recovery (in vitro; human) | fraction unbound (in vitro; human) | recovery (in vitro; mouse) | fraction unbound (in vitro; mouse) | IV AUC0-last [2] | IV Clearance [2] | IV T1/2 [2] | IV VD,ss [2] | PO Bioavailability [2] | PO AUC0-last [2] | PO T1/2 [2] | IC50 [1] | activity in HEK Blue-TLR4 reporter assay (inhibition of MD2 signaling pathway) [3] | antifibrotic efficacy in this model ([1]; TGF-β-activated iPSC-derived cardiac fibroblasts) | IC50 ([1]; Cardiac fibroblast) | antifibrotic activity [4] |
| --- | --- | --- | --- | --- | --- | --- | --- | --- | --- | --- | --- | --- | --- | --- | --- | --- | --- |
| C[C@H]1[C@@H](O)OC2O[C@@]3(C)CC[C@H]4[C@H](C)CC[C@@H]1[C@@]24OO3 (stereo in doubt) [DHA, (3R,5aS,6R,8aS,9R,12S,12aR)-decahydro-3,6,9-trimethyl-3,12-epoxy-12H-pyrano[4,3-j]-1,2-benzodioxepin-10-ol] | dose-dependent reduction in fluorescence | 102% | 0.108 | 105% | 0.1 |  |  |  |  |  |  |  |  |  |  |  |  |
| CC(CO)C(=O)OC1OC2OC3(C)CCC4C(C)CCC(C1C)C24OO3 (stereo not shown) [PT-1, DHA 3-hydroxy-2-methylpropionate] |  |  |  |  |  | 100 ng·h/mL | 1280 mL/min/kg | 7.8 min | 9.0 L/kg | 1.3% | 20 ng·h/mL | 22.2 min | 2300 nM |  |  |  |  |
| C[C@H]1[C@@H](OC(=O)C(C)(C)CO)O[C@@H]2O[C@@]3(C)CC[C@H]4[C@H](C)CC[C@@H]1[C@@]24OO3 [PT-2, DHA 3-hydroxy-2,2-dimethylpropanoate] |  |  |  |  |  | 1200 ng·h/mL | 140 mL/min/kg | 6 min | 1.3 L/kg | 27% | 3200 ng·h/mL |  | 880 nM | active |  |  |  |
| CC1CCC2C(C)C(OC(=O)CC(C)(C)O)OC3OC4(C)CCC1C32OO4 (stereo not shown) [PT-4, DHA 3-hydroxy-3-methylbutanoate] |  |  |  |  |  | 600 ng·h/mL | 280 mL/min/kg | 6.6 min | 2.0 L/kg | 11% | 500 ng·h/mL | 10.8 min | 5600 nM |  |  |  |  |
| CC1CCC2C(C)C(OC(=O)N3CC(O)C3)OC3OC4(C)CCC1C32OO4 (stereo not shown) [PT-13, DHA 3-hydroxyazetidine-1-carboxylate] |  |  |  |  |  | 2200 ng·h/mL | 76 mL/min/kg | 7.2 min | 0.9 L/kg | 64% | 14100 ng·h/mL | 41.4 min | 2600 nM |  |  |  |  |
| CC1CCC2C(C)C(OC(=O)N3CC(C)(O)C3)OC3OC4(C)CCC1C32OO4 (stereo not shown) [PT-14, DHA 3-hydroxy-3-methylazetidine-1-carboxylate] |  |  |  |  |  | 2200 ng·h/mL | 75 mL/min/kg | 10.8 min | 1.1 L/kg | 92% | 20500 ng·h/mL | 39.6 min | 570 nM | active |  |  |  |
| CC1CCC2C(C)C(OC(=O)N(C)CCO)OC3OC4(C)CCC1C32OO4 (stereo not shown) [PT-20, DHA (2-hydroxyethyl)(methyl)carbamate] |  |  |  |  |  | 2400 ng·h/mL | 69 mL/min/kg | 14.4 min | 0.8 L/kg | 73% | 17700 ng·h/mL | 31.8 min |  |  |  |  |  |
| CC1CCC2C(C)C(OC(=O)N3CC(C)(N)C3)OC3OC4(C)CCC1C32OO4 (stereo not shown) [PT-24, DHA 3-amino-3-methylazetidine-1-carboxylate] |  |  |  |  |  | 2200 ng·h/mL | 77 mL/min/kg | 15.6 min | 2.2 L/kg | 123% | 24300 ng·h/mL | 67.2 min |  |  |  |  |  |
| CC1CCC2C(C)C(OC(=O)N3CC(C)(C(=O)O)C3)OC3OC4(C)CCC1C32OO4 (stereo not shown) [PT-25, DHA 3-carboxy-3-methylazetidine-1-carboxylate] |  |  |  |  |  | 2200 ng·h/mL | 74 mL/min/kg | 16.2 min | 1.3 L/kg | 17% | 3700 ng·h/mL | 113 min |  |  |  |  |  |
| CC1CCC2C(C)C(OC(=O)N3CC(C)(C(N)=O)C3)OC3OC4(C)CCC1C32OO4 (stereo not shown) [PT-27, DHA 3-methyl-3-carbamoylazetidine-1-carboxylate] |  |  |  |  |  | 3300 ng·h/mL | 47 mL/min/kg | 15 min | 1.0 L/kg | 41% | 14400 ng·h/mL | 78 min |  |  |  |  |  |
| CNC(=O)C1(C)CN(C(=O)O[C@H]2O[C@@H]3O[C@@]4(C)CC[C@H]5[C@H](C)CC[C@@H]([C@H]2C)[C@@]35OO4)C1 [PT-28, DHA 3-methyl-3-(methylcarbamoyl)azetidine-1-carboxylate] |  |  |  |  |  | 4200 ng·h/mL | 38 mL/min/kg | 14.4 min | 0.8 L/kg | 112% | 48800 ng·h/mL | 28.8 min |  |  | demonstrated antifibrotic efficacy |  |  |
| CC1CCC2C(C)C(OC(=O)N3CC(C)(C(=O)N(C)C)C3)OC3OC4(C)CCC1C32OO4 (stereo not shown) [PT-29, DHA 3-methyl-3-(dimethylcarbamoyl)azetidine-1-carboxylate] |  |  |  |  |  | 2000 ng·h/mL | 82 mL/min/kg | 7.8 min | 0.9 L/kg | 34% | 6800 ng·h/mL | 64.8 min |  |  |  |  |  |
| C[C@H]1[C@H](OC(=O)CCC(=O)O)O[C@@H]2O[C@@]3(C)CC[C@H]4[C@H](C)CC[C@@H]1[C@@]24OO3 [artesunate] | dose-dependent reduction in fluorescence | 98% | 0.233 | 53.4% | 0.278 |  |  |  |  |  |  |  |  |  |  | 2800 nM | active as an antifibrotic agent |
| CC(=O)CC(c1ccccc1)c1c(O)c2ccccc2oc1=O (stereo not shown) [warfarin] |  | 91.1% | 0.003 | 94.5% | 0.007 |  |  |  |  |  |  |  |  |  |  |  |  |
